Measurements taken from ChEMBL document CHEMBL1201862, “PubChem BioAssay data set” (2004).

The compounds below were run against T1, Heat shock factor protein 1 (Mus musculus, UniProt P38532) (assay: decrease of HSF1-responsive luciferase luminescence – cell-based, NIH3T3, dose retest, confirmation (AID 2382);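 note: NIH3T3 fibroblasts with HSF1-driven luciferase reporter stressed by proteasome inhibitor MG132; luminescence from HSF1-driven luciferase expression after 8 hours of MG132 stress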).
T1 sequence (P38532 whole entry): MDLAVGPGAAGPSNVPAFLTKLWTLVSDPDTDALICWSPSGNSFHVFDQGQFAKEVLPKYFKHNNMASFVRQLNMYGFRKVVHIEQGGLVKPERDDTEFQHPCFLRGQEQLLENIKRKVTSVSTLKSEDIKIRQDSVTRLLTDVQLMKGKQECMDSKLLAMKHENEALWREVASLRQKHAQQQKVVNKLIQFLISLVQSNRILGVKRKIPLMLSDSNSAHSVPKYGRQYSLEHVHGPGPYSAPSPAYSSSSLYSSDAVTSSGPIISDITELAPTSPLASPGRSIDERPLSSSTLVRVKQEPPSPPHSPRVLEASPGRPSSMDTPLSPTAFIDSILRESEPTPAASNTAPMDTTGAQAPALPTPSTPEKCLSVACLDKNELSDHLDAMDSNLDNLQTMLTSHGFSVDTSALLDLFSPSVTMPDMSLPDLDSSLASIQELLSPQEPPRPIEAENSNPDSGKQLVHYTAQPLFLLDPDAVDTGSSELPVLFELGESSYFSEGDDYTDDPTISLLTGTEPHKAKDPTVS
Format: functional
In the case of `NC(=O)c1ccc[n+](CC(=O)OCCC23CC4CC(CC(C4)C2)C3)c1`, the EC50 is reported as > 195 µM (not active).
For `CCCn1c(SCC(=O)c2c(C)[nH]c(C)c2C(=O)OCC)nc2ccccc21`, the EC50 was > 195 µM (not active).
In the case of `COc1ccc(CC(C)Nc2cccc(SC)c2)cc1` (stereo not drawn), the EC50 is reported as > 195 µM (not active).
For `COc1cccc(C(c2sc3nc(C)nn3c2O)N2CCN(C(=O)c3ccco3)CC2)c1` (stereo not drawn), the EC50 was > 195 µM (not active).
`O=C(OCn1nnc2ccccc2c1=O)c1cc(-c2ccccc2)nc2ccccc12` was tested, and the EC50 was > 195 µM (not active).
With `O=C1CC(N2CCCCC2)C(=O)N1c1ccccc1` (stereo not drawn) the EC50 was > 195 µM (not active).
For `CCOC(=O)c1sc(NC(=O)CSc2nnc(-c3ccccc3)[nH]2)c(C#N)c1C`, the EC50 was > 195 µM (not active).
With `COc1ccc(Br)cc1CN1CCN(CCO)CC1` the EC50 was > 195 µM (not active).
For `CN(C(=O)c1ccc(OC2CCN(Cc3ccccn3)CC2)cc1)C1CCCCC1`, the EC50 was > 195 µM (not active).
With `CCOC(=O)c1ccc(Oc2nc(NC)nc(Nc3ccccc3)n2)cc1` the EC50 was > 195 µM (not active).
For `CCCCC1C(=O)NC(=S)NC1=O`, the EC50 was > 195 µM (not active).
For `Cc1cccc(NS(=O)(=O)c2cc3c(cc2C)NC(=O)CO3)c1`, the EC50 was > 195 µM (not active).
`COCCCNC(=O)CC(NS(=O)(=O)c1ccc(C)cc1)c1ccc(OC)cc1` (stereo not drawn) was tested, and the EC50 was > 195 µM (not active).
With `O=C(N/N=C\c1c[nH]nc1-c1ccccc1)c1cccs1` the EC50 was > 195 µM (not active).
In the case of `NC(=S)N/N=C1\CC(n2nnnc2-c2ccccc2Cl)C2COC1O2` (stereo not drawn), the EC50 is reported as > 195 µM (not active).

Each compound was assayed against T2, Cytochrome P450 1A2 (Homo sapiens, UniProt P05177).
T2 sequence (P05177 whole entry): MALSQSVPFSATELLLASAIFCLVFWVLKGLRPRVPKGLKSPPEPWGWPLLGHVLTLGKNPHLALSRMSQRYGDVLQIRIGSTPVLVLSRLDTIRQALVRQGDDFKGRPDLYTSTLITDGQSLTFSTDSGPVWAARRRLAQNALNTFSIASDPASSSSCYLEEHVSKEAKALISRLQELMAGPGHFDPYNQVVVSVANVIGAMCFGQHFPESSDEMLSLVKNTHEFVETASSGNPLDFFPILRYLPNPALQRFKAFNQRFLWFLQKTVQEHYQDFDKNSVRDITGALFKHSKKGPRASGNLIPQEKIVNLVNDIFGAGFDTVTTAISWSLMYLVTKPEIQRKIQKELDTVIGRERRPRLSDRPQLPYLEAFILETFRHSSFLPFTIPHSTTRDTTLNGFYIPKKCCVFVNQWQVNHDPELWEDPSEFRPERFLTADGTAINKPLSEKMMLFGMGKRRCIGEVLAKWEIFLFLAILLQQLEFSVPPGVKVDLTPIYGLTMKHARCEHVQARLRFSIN
In the case of `CCCN[C@@H](C)C(=O)Nc1c(C)csc1C(=O)OC`, the AC50 is reported as 12.6 µM (inconclusive).
For `O=C(NCCc1c[nH]c2ccccc12)[C@H]1C[C@@H]1[C@H](NP(=O)(c1ccccc1)c1ccccc1)c1ccccc1`, the AC50 was 12.6 µM (inconclusive).
For `COc1ccc2[nH]cc(CCNc3ncncc3-c3ccc(C(=O)N(C)C)cc3)c2c1`, the AC50 was 20 µM (inconclusive).
In the case of `COC(=O)[C@H]1C(=O)[C@H](C(=O)OC)[C@@H]2CC[C@H]1N2C`, the AC50 is reported as 0.794 µM (inconclusive).
For `Cc1ccccc1NS(=O)(=O)c1cc(C(=O)Nc2cccc(N(C)S(C)(=O)=O)c2)ccc1C`, the AC50 was 17.8 µM (inconclusive).
For `O=[N+]([O-])c1ccc(NN=C2c3ccccc3Cc3ccccc32)c([N+](=O)[O-])c1`, the AC50 was 0.794 µM (inconclusive).
In the case of `c1ccc(-c2ccccn2)nc1`, the AC50 is reported as 25.1 µM (inconclusive).

What follows are compounds tested against Cytochrome P450 2D6 (Homo sapiens, UniProt P10635).
Cytochrome P450 2D6, sequence (P10635 whole entry): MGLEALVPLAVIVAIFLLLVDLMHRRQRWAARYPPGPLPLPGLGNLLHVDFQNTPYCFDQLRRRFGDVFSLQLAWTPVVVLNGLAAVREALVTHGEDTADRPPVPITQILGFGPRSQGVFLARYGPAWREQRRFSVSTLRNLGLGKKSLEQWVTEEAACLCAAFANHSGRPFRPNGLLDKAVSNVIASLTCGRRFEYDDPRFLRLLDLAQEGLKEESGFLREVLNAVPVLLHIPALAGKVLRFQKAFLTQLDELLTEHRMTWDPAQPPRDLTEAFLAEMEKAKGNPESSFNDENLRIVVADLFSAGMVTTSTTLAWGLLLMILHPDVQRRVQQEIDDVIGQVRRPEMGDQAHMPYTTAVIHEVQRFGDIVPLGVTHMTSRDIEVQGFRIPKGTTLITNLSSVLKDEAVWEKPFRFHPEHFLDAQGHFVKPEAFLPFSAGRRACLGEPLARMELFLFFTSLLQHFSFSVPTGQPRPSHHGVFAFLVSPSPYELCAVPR
With `CCOC(=O)c1cc(C(=O)OCC)cc(-n2cc(O)c(C(=O)OCC)n2)c1` the AC50 was 3.16 µM (inconclusive).
For `NC(=O)c1ccc[n+](CC(=O)OCCC23CC4CC(CC(C4)C2)C3)c1`, the AC50 was 39.8 µM (inconclusive).
`COc1cc([N+](=O)[O-])ccc1NC(=O)CCCOc1cccc(C)c1` was tested, and the AC50 was 15.8 µM (inconclusive).
With `CS(=O)(=O)Nc1cccc(-c2cncnc2Nc2ccc(F)cc2)c1` the AC50 was 20 µM (inconclusive).
With `CC(C)n1nnnc1SCC(=O)NCCc1ccccc1` the AC50 was 25.1 µM (inconclusive).
For `c1ccc(Nc2nc(-c3ccc4c(c3)OCO4)nc3ccccc23)cc1`, the AC50 was 39.8 µM (inconclusive).
`COc1ccc(O[C@H]2C=C[C@@H](c3ccccc3)O[C@H]2COC(=O)CC/C(C)=N\O[C@@H](C)c2cn([C@H]3COC[C@H]3O)nn2)cc1` was tested, and the AC50 was 7.94 µM (inconclusive).
For `Cc1ccccc1NS(=O)(=O)c1cc(C(=O)Nc2cccc(N(C)S(C)(=O)=O)c2)ccc1C`, the AC50 was 17.8 µM (inconclusive).
For `CCN=C(Nc1cccc(F)c1)SC1CC(=O)N(c2ccc(OC)cc2)C1=O` (stereo not drawn), the AC50 was 14.1 µM (inconclusive).
`CCNc1ncc2nc(C)c(=O)n(Cc3cccc(OC)c3)c2n1` was tested, and the AC50 was 25.1 µM (inconclusive).
In the case of `c1cc(CN2CC3(CCNCC3)C2)ccn1`, the AC50 is reported as 39.8 µM (inconclusive).
